In ChEMBL document CHEMBL3046314, “Synthesis, cytotoxicity, and molecular properties prediction of novel 1,3-diarylpyrazole derivatives” (Med Chem Res, 2013):

Assays:
Type in all cases: functional, cell-based
MCF7 = test: Cytotoxicity against Homo sapiens (human) MCF7 cells after 48 hr by MTT assay
MDA-MB-231 = test: Cytotoxicity against Homo sapiens (human) MDA-MB-231 cells after 48 hr by MTT assay; conditions: MDA-MB-231, 48 h
Raji = test: Cytotoxicity against Homo sapiens (human) Raji cells after 48 hr by MTT assay
HL-60 = test: Cytotoxicity against Homo sapiens (human) HL60 cells after 48 hr by MTT assay
HeLa = test: Cytotoxicity against Homo sapiens (human) HeLa cells after 48 hr by MTT assay
[1] = Homo sapiens, MCF7, 48 h, read-out: IC50
[2] = Homo sapiens, Raji, 48 h, read-out: IC50
[3] = Homo sapiens, HL-60, 48 h, read-out: IC50

| Structure (SMILES) | IC50 (MCF7; [1]) | IC50 (MDA-MB-231) | IC50 (Raji; [2]) | IC50 (HL-60; [3]) | IC50 (HeLa) | IC50 (MCF7; mcf7) | IC50 (Raji; raji) | IC50 (HL-60; hl-60) |
| --- | --- | --- | --- | --- | --- | --- | --- | --- |
| CN1CCN(C(=O)c2cn(-c3ccccc3)nc2-c2cccnc2)CC1 | > 100 µM | > 100 µM | 75.6 µM | > 100 µM | > 100 µM |  |  |  |
| O=C(O)c1cn(-c2ccccc2)nc1-c1ccncc1 | > 100 µM | > 100 µM | > 100 µM | > 100 µM | > 100 µM |  |  |  |
| O=C(O)c1cn(-c2ccccc2)nc1-c1cccnc1 | > 100 µM | > 100 µM | > 100 µM | > 100 µM | > 100 µM |  |  |  |
| O=C(c1cn(-c2ccccc2)nc1-c1cccnc1)N1CCN(c2ccc(C(F)(F)F)cc2)CC1 | 75.3 µM | > 100 µM | 15.1 µM | 16.9 µM | 28.6 µM |  |  |  |
| COc1ccc(OC(=O)c2cn(-c3ccccc3)nc2-c2cccnc2)cc1 | > 100 µM | > 100 µM | > 100 µM | > 100 µM | > 100 µM |  |  |  |
| CC(C)c1cccc(OC(=O)c2cn(-c3ccccc3)nc2-c2cccnc2)c1 | 75.5 µM | > 100 µM | 11.6 µM | 23.7 µM | > 100 µM |  |  |  |
| CC(C)(C)c1ccc(OC(=O)c2cn(-c3ccccc3)nc2-c2cccnc2)cc1 | > 100 µM | > 100 µM | 42.3 µM | > 100 µM | > 100 µM |  |  |  |
| Cc1ccc(C(C)C)c(OC(=O)c2cn(-c3ccccc3)nc2-c2cccnc2)c1 | 84.2 µM | > 100 µM | 20.6 µM | 22.7 µM | > 100 µM |  |  |  |
| O=C(Oc1ccc(-c2ccccc2)cc1)c1cn(-c2ccccc2)nc1-c1cccnc1 |  | > 100 µM |  |  | > 100 µM | ND(Insoluble) | ND(Insoluble) | ND(Insoluble) |
| O=C(Oc1ccc2ccccc2c1)c1cn(-c2ccccc2)nc1-c1cccnc1 |  | > 100 µM |  |  | > 100 µM | ND(Insoluble) | ND(Insoluble) | ND(Insoluble) |
| O=C(NCc1ccccc1)c1cn(-c2ccccc2)nc1-c1ccncc1 | > 100 µM | > 100 µM | > 100 µM | > 100 µM | > 100 µM |  |  |  |
| O=C(c1cn(-c2ccccc2)nc1-c1ccncc1)N1CCOCC1 | > 100 µM | > 100 µM | > 100 µM | > 100 µM | > 100 µM |  |  |  |
| O=C(c1cn(-c2ccccc2)nc1-c1ccncc1)N1CCC(Cc2ccccc2)CC1 | 56.4 µM | > 100 µM | 21.3 µM | 16.4 µM | 32.8 µM |  |  |  |
| CN1CCN(C(=O)c2cn(-c3ccccc3)nc2-c2ccncc2)CC1 | > 100 µM | > 100 µM | > 100 µM | > 100 µM | > 100 µM |  |  |  |
| O=C(c1cn(-c2ccccc2)nc1-c1ccncc1)N1CCN(c2ccccc2)CC1 | > 100 µM | > 100 µM | > 100 µM | > 100 µM | > 100 µM |  |  |  |
| O=C(c1cn(-c2ccccc2)nc1-c1ccncc1)N1CCN(c2ccc(C(F)(F)F)cc2)CC1 | > 100 µM | > 100 µM | 9.63 µM | > 100 µM | > 100 µM |  |  |  |
| O=C(c1cn(-c2ccccc2)nc1-c1ccncc1)N1CCN(c2ccncc2)CC1 | > 100 µM | > 100 µM | > 100 µM | > 100 µM | > 100 µM |  |  |  |
| COc1ccc(OC(=O)c2cn(-c3ccccc3)nc2-c2ccncc2)cc1 | > 100 µM | > 100 µM | > 100 µM | > 100 µM | > 100 µM |  |  |  |
| CCc1ccc(OC(=O)c2cn(-c3ccccc3)nc2-c2ccncc2)cc1 |  | > 100 µM |  |  | > 100 µM | ND(Insoluble) | ND(Insoluble) | ND(Insoluble) |
| CC(C)c1cccc(OC(=O)c2cn(-c3ccccc3)nc2-c2ccncc2)c1 |  | > 100 µM |  |  | > 100 µM | ND(Insoluble) | ND(Insoluble) | ND(Insoluble) |
| CC(C)(C)c1ccc(OC(=O)c2cn(-c3ccccc3)nc2-c2ccncc2)cc1 | 32.2 µM | 34.5 µM | 33.3 µM | 18.7 µM | 35.4 µM |  |  |  |
| Cc1ccc(C(C)C)c(OC(=O)c2cn(-c3ccccc3)nc2-c2ccncc2)c1 | > 100 µM | > 100 µM | 10.6 µM | 17.8 µM | > 100 µM |  |  |  |
| O=C(Oc1ccc(-c2ccccc2)cc1)c1cn(-c2ccccc2)nc1-c1ccncc1 |  | > 100 µM |  |  | > 100 µM | ND(Insoluble) | ND(Insoluble) | ND(Insoluble) |
| O=C(Oc1ccc2ccccc2c1)c1cn(-c2ccccc2)nc1-c1ccncc1 | 44.5 µM | > 100 µM | 12.1 µM | > 100 µM | > 100 µM |  |  |  |
| O=C(NCc1ccccc1)c1cn(-c2ccccc2)nc1-c1cccnc1 |  | > 100 µM |  |  | > 100 µM | ND(Insoluble) | ND(Insoluble) | ND(Insoluble) |
| O=C(c1cn(-c2ccccc2)nc1-c1cccnc1)N1CCOCC1 | > 100 µM | > 100 µM | > 100 µM | > 100 µM | > 100 µM |  |  |  |
| O=C(c1cn(-c2ccccc2)nc1-c1cccnc1)N1CCC(Cc2ccccc2)CC1 | 32.2 µM | > 100 µM | 8.12 µM | 16.1 µM | 25.3 µM |  |  |  |
| O=C(c1cn(-c2ccccc2)nc1-c1cccnc1)N1CCN(c2ccccc2)CC1 | > 100 µM | > 100 µM | 32.8 µM | 24.5 µM | > 100 µM |  |  |  |
| O=C(c1cn(-c2ccccc2)nc1-c1cccnc1)N1CCN(c2ccncc2)CC1 | > 100 µM | > 100 µM | > 100 µM | > 100 µM | > 100 µM |  |  |  |
